Experiment [1] deals with T1, ΔF508-CFTR (Homo sapiens, UniProt P13569, DEL508-508).
T1 construct: host or cells: CFBE41o-, doxycycline-inducible
In words: CFTR cell surface levels using HRP-tagged ΔF508-CFTR expressing CFBE cells, intrinsic corrector capacity. Conditions: for pEC50: read-out: EC50. Format: cell-based. The text has this: Measuring CFTR Cell Surface Levels Using HRP-Tagged AF508-CFTR Expressing CFBE Cells
The HRP-tagged AF508-CFTR cell assay measures the expression of CFTR-ΔF508 at the plasma membrane. CFTR-ΔF508 has a folding defect leading to absence of protein at the plasma membrane. This assay is used to evaluate the capacity of compounds to increase the expression of CFTR-ΔF508 at the plasma membrane. The CFTR-ΔF508 is tagged with HRP (horse radish peroxidase enzyme) within the ECL4 (Extracellular loop 4) of CFTR (Phuan, P.-W. et al. Synergy-based small-molecule screen using a human lung epithelial cell line yields AF508-CFTR correctors that augment VX-809 maximal efficacy. Mol. Pharmacol. 86, 42-51 (2014)). When HRP-tagged AF508-CFTR is present at the plasma membrane, the HRP enzyme activity can be measured. The amount of CFTR-ΔF508 that can be rescued to the plasma membrane is correlated with the amount of functional enzyme that can be measured.
There are several ways to measure the capacity of compounds to rescue CFTR-ΔF508 to the plasma membrane; either compounds are evaluated on their own and the impact on plasma membrane levels is measured or compounds are evaluated in combination with a co-corrector, i.e. a compound that rescues CFTR-ΔF508 to the plasma membrane but rescue can be enhanced by addition of compounds due to a complementary mode of action.
Activity of Compounds for their Intrinsic Corrector Capacity:
For this purpose doxycycline-inducible AF508-CFTR-HRP expressing CFBE4lo-cells (obtained from Gergely Lukacs, McGill University) were maintained in MEM (Gibco; 31095) supplemented with 10% fetal bovine serum (Hyclone; SV30160.03) under puromycin (3 μg/mL) and G418 selection (0.2 mg/mL). For compound testing, cells were seeded at 4000 cells/well in white 384-well plates (Greiner; 781080) in 50 μL medium containing 0.5 μg/mL doxycycline and incubated for 68 hours at 37° C., 5% CO2. On day four, 10 μL test compounds diluted in PBS were added to the plates at a final DMSO concentration of 0.1%. All compound plates contained negative controls (DMSO) and positive controls (3 μM corrector, 3-[(2R,4R)-4-({[1-(2,2-difluoro-1,3-benzodioxol-5-yl)cyclopropyl]carbonyl}amino)-7-methoxy-3,4-dihydro-2H-chromen-2-yl]benzoic acid). Cell plates were incubated at 33° C., 5% CO2 for 20 hours. On day five, the cells were washed five times with phosphate-buffered saline, and HRP activity was assayed by the addition of 50 μL/well of HRP substrate (SuperSignal™ West Pico Chemiluminescent Substrate, Thermo Scientific; 34080). After incubation for 15 minutes in the dark, chemiluminescence was measured using a plate reader (EnVision®, Perkin Elmer). Raw data were normalized to percentage activity values using the equation: 100×(Sample−Negative control)/(Positive control−Negative Control).

The target of experiment [2] is T1, ΔF508-CFTR. The experiment can be described thus: CFTR cell surface levels using HRP-tagged ΔF508-CFTR expressing CFBE cells, in the presence of a co-corrector. In kind it is cell-based. The following applies: HRP-tagged ΔF508-CFTR expressing CFBE cells, in the presence of 3 μM co-corrector; for pEC50: read-out: EC50. In short, it runs like this: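 Cells were seeded with 0.5 μg/mL doxycycline and held 68 h at 37 °C. Test compounds plus 3 μM co-corrector (final 0.1% DMSO) were then added for 20 h at 33 °C. Washed cells received HRP substrate, and luminescence was normalized between DMSO and 3 μM co-corrector controls.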

Where [3] appears, read: HRP-tagged ΔF508-CFTR expressing CFBE cells, intrinsic corrector capacity (no co-corrector), 33° C., 20 hours.
[4] abbreviates: HRP-tagged ΔF508-CFTR CFBE41o- cells, compounds alone (intrinsic corrector capacity), 20 hours at 33° C., positive control 3 μM corrector.
Where [5] appears, read: HRP-tagged ΔF508-CFTR CFBE41o- cells, compounds alone (intrinsic corrector capacity), 20 hours at 33° C.

We go through 17 compounds from US9796711B2, “Substituted pyrazolo[3,4-b]pyridin-6-carboxylic acids and method of use” (AbbVie S.àr.l., priority 2015, dated 2017).

The term pEC50 denotes the negative decadic logarithm of the EC50, by convention in mol/L.

pEC50: −log10 of the molar value.

T1 sequence (P13569 with tags, fused parts or gaps DEL508-508): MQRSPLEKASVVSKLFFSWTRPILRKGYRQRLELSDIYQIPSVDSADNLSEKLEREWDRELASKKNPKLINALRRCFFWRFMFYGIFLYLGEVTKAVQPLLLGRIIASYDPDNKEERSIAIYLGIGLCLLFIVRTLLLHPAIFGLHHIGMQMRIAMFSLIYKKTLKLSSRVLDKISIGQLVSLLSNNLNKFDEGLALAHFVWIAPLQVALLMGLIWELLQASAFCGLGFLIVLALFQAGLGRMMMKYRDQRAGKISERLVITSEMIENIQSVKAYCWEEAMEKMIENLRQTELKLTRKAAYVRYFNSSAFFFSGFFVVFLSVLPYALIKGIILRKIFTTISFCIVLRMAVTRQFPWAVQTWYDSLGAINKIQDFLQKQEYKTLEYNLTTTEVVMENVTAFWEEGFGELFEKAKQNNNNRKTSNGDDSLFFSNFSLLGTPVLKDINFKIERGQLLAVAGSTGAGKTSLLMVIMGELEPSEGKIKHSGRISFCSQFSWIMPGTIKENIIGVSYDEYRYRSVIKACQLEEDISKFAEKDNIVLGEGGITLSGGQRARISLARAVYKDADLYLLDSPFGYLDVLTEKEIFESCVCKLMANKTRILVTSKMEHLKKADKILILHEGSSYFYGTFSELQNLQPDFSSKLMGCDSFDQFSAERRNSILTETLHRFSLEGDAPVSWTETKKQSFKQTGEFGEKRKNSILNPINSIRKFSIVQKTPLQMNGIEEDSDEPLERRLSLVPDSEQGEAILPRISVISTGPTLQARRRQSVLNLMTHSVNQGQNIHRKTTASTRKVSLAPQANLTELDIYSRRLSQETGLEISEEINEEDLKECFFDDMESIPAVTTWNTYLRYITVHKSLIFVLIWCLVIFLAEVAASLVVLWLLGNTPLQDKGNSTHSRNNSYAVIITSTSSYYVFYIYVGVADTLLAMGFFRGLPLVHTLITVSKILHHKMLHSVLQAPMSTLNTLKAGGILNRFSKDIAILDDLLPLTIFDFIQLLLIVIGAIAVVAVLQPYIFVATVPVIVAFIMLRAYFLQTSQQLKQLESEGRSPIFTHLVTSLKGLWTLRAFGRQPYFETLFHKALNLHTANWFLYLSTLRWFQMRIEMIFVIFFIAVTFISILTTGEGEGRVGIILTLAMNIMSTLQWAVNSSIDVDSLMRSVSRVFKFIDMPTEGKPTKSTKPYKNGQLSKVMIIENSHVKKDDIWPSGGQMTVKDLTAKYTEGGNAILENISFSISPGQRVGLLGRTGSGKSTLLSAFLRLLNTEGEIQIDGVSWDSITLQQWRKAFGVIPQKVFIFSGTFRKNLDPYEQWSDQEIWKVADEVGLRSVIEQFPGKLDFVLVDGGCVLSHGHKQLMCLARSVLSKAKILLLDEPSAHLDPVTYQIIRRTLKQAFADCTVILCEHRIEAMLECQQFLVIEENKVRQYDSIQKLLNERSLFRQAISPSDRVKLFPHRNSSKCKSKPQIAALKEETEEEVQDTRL

`O=C(O)c1cc(N2CCC(N3CCOCC3)CC2)c2c(C3CCC3)nn(-c3ccc4c(c3)OC(F)(F)O4)c2n1` [compound 906, 3-cyclobutyl-1-(2,2-difluoro-2H-1,3-benzodioxo1-5-yl)-4-[4-(morpholin-4-yl)piperidin-1-yl]-1H-pyrazolo[3,4-b]pyridine-6-carboxylic acid]: the “% Activation” value at ΔF508-CFTR [1] (setting [3]) is reported as 276.92%; at ΔF508-CFTR [2] it was 485.34%. For the same compound, the pEC50 was 6.84 on ΔF508-CFTR [1] (setting [3]) and 7.14 at ΔF508-CFTR [2].
Taken in the same sequence, the figures for `CN1CCC[C@H](Oc2cc(C(=O)O)nc3c2c(C2CCC2)nn3-c2ccccc2)C1` [compound 494, 3-cyclobutyl-4-{[(3S)-1-methylpiperidin-3-yl]oxy}-1-phenyl-1H-pyrazolo[3,4-b]pyridine-6-carboxylic acid] were 65.56%, 196.7%, 5.48 and 5.94.
For `CC(C)c1nn(-c2ccc(F)cc2F)c2nc(C(=O)O)cc(-c3ccc(N4CCC(C#N)CC4)nc3)c12` [compound 326, 4-[6-(4-cyanopiperidin-1-yl)pyridin-3-yl]-1-(2,4-difluorophenyl)-3-(propan-2-yl)-1H-pyrazolo[3,4-b]pyridine-6-carboxylic acid], the “% Activation” value on ΔF508-CFTR [1] (setting [4]) was determined as 180.53%; at ΔF508-CFTR [2], 360.83%. The results for the pEC50 on ΔF508-CFTR [1] (setting [5]) and on ΔF508-CFTR [2] were 6.01 and 6.24, respectively.
In the case of `COCC1CCN(Cc2cc(C(=O)O)nc3c2c(C2CCC2)nn3-c2ccc(F)cc2)CC1` [compound 859, 3-cyclobutyl-1-(4-fluorophenyl)-4-{[4-(methoxymethyl)piperidin-1-yl]methyl}-1H-pyrazolo[3,4-b]pyridine-6-carboxylic acid], at ΔF508-CFTR [1] (setting [3]), the “% Activation” value is 89.07% and the pEC50 is 5.65. In addition, at ΔF508-CFTR [2], the “% Activation” value amounted to 291.4% and the pEC50 was 5.59.
Consider `Cc1nn(-c2ccccc2)c2nc(C(=O)O)cc(N3CC[C@H](F)C3)c12` [compound 300, 4-[(3S)-3-fluoropyrrolidin-1-yl]-3-methyl-1-phenyl-1H-pyrazolo[3,4-b]pyridine-6-carboxylic acid], for which the “% Activation” value came out at 41.065% on ΔF508-CFTR [1] (setting [4]) and 165% at ΔF508-CFTR [2]. In addition, the pEC50 on ΔF508-CFTR [1] (setting [5]) and at ΔF508-CFTR [2] was 5.60 throughout.
On to `COC(=O)N1CC(c2nn(C3CCCCC3)c3nc(C(=O)O)cc(-c4cnc(N(C)C)nc4)c23)C1` [compound 166, 1-cyclohexyl-4-[2-(dimethylamino)pyrimidin-5-yl]-3-[1-(methoxycarbonyl)azetidin-3-yl]-1H-pyrazolo[3,4-b]pyridine-6-carboxylic acid], for which the “% Activation” value worked out at 68.01% on ΔF508-CFTR [1] (setting [4]) and 241.5% on ΔF508-CFTR [2]. In addition, the pEC50 was 5.48 at ΔF508-CFTR [1] (setting [5]) and 5.49 on ΔF508-CFTR [2].
Taken in the same sequence, the figures for `CC(C)c1nn(C2CCCCC2)c2nc(C(=O)O)cc(-c3ccc(N(C)C4CCOCC4)cc3)c12` [compound 254, 1-cyclohexyl-4-{4-[methyl(oxan-4-yl)amino]phenyl}-3-(propan-2-yl)-1H-pyrazolo[3,4-b]pyridine-6-carboxylic acid] were 234.6%, 417.67%, 6.21 and 6.48.
Take `CN1C(=O)CN(CC2CCN(c3cc(C(=O)O)nc4c3c(C3CCC3)nn4-c3ccccc3)CC2)CC12COC2` [compound 845, 3-cyclobutyl-4-{4-[(5-methyl-6-oxo-2-oxa-5,8-diazaspiro[3.5]nonan-8-yl)methyl]piperidin-1-yl}-1-phenyl-1H-pyrazolo[3,4-b]pyridine-6-carboxylic acid]: on ΔF508-CFTR [1] (setting [3]), the “% Activation” value is 273.7% and the pEC50 was 5.83. On ΔF508-CFTR [2], the “% Activation” value is listed as 499.6% and the negative logarithm of the EC50 (pEC50) is 5.96.
With `Cc1nn(-c2ccccc2)c2nc(C(=O)O)cc(-c3ccc(N4CCN(S(C)(=O)=O)CC4)cc3)c12` [compound 53, 4-{4-[4-(methanesulfonyl)piperazin-1-yl]phenyl}-3-methyl-1-phenyl-1H-pyrazolo[3,4-b]pyridine-6-carboxylic acid], the “% Activation” value at ΔF508-CFTR [1] (setting [4]) is 72.97%. For the same compound, the pEC50 on ΔF508-CFTR [1] (setting [5]) was 5.48.
In the case of `Cc1nn(-c2cnn(C)c2)c2nc(C(=O)O)cc(-c3ccc(N4CCOCC4)cc3)c12` [compound 46, 3-methyl-1-(1-methyl-1H-pyrazol-4-yl)-4-[4-(morpholin-4-yl)phenyl]-1H-pyrazolo[3,4-b]pyridine-6-carboxylic acid], the “% Activation” value on ΔF508-CFTR [1] (setting [4]) worked out at 15.23%. The pEC50 at ΔF508-CFTR [1] (setting [5]) was less than 5.00.
With `Cc1nn(-c2ccccc2)c2nc(C(=O)O)cc(-c3ccc(N4CCS(=O)(=O)CC4)cc3)c12` [compound 14, 4-[4-(1,1-dioxo-1λ^6,4-thiazinan-4-yl)phenyl]-3-methyl-1-phenyl-1H-pyrazolo[3,4-b]pyridine-6-carboxylic acid], at ΔF508-CFTR [1] (setting [4]), the “% Activation” value came out at 58.56%. Moreover, the pEC50 on ΔF508-CFTR [1] (setting [5]) was 5.48.
For `Cc1nn(-c2cccc(OC(F)(F)F)c2)c2nc(C(=O)O)cc(-c3ccc(N4CCOCC4)cc3)c12` [compound 35, 3-methyl-4-[4-(morpholin-4-yl)phenyl]-1-[3-(trifluoromethoxy)phenyl]-1H-pyrazolo[3,4-b]pyridine-6-carboxylic acid], the “% Activation” value at ΔF508-CFTR [1] (setting [4]) turned out to be 110.15%. The pEC50 on ΔF508-CFTR [1] (setting [5]) was 6.13.
As for `Cc1nn(-c2cc(Cl)cc(Cl)c2)c2nc(C(=O)O)cc(-c3ccc(N4CCOCC4)cc3)c12` [compound 44, 1-(3,5-dichlorophenyl)-3-methyl-4-[4-(morpholin-4-yl)phenyl]-1H-pyrazolo[3,4-b]pyridine-6-carboxylic acid], on ΔF508-CFTR [1] (setting [4]), the “% Activation” value worked out at 117.2%. At ΔF508-CFTR [1] (setting [5]), the pEC50 was 5.66.
Regarding `Cc1nn(C2CCN(C)CC2)c2nc(C(=O)O)cc(-c3ccc(N4CCOCC4)cc3)c12` [compound 39, 3-methyl-1-(1-methylpiperidin-4-yl)-4-[4-(morpholin-4-yl)phenyl]-1H-pyrazolo[3,4-b]pyridine-6-carboxylic acid], the “% Activation” value on ΔF508-CFTR [1] (setting [4]) was −2.469%. In addition, on ΔF508-CFTR [1] (setting [5]), the pEC50 is less than 5.00.
Turning to `COc1cc(F)cc(-n2nc(C)c3c(-c4ccc(N5CCOCC5)cc4)cc(C(=O)O)nc32)c1` [compound 52, 1-(3-fluoro-5-methoxyphenyl)-3-methyl-4-[4-(morpholin-4-yl)phenyl]-1H-pyrazolo[3,4-b]pyridine-6-carboxylic acid], at ΔF508-CFTR [1] (setting [4]), the “% Activation” value is listed as 87.35%. Besides, the pEC50 on ΔF508-CFTR [1] (setting [5]) was 5.57.
For `CC(C)(CO)c1nn(-c2ccccc2)c2nc(C(=O)O)cc(-c3ccc(N4CCOCC4)cc3)c12` [compound 56, 3-(1-hydroxy-2-methylpropan-2-yl)-4-[4-(morpholin-4-yl)phenyl]-1-phenyl-1H-pyrazolo[3,4-b]pyridine-6-carboxylic acid], the “% Activation” value on ΔF508-CFTR [1] (setting [4]) was 53.1%. For the same compound, at ΔF508-CFTR [1] (setting [5]), the pEC50 is 5.48.
As to `CC(C)c1nn(-c2cccc(C#N)c2)c2nc(C(=O)O)cc(-c3ccc(N4CCOCC4)cc3)c12` [compound 49, 1-(3-cyanophenyl)-4-[4-(morpholin-4-yl)phenyl]-3-(propan-2-yl)-1H-pyrazolo[3,4-b]pyridine-6-carboxylic acid], on ΔF508-CFTR [1] (setting [4]), the “% Activation” value came out at 107%. Also, the pEC50 at ΔF508-CFTR [1] (setting [5]) is 5.95.
